Test system: HBV
Assay: HBV markers in HBV-infected primary human hepatocyte (PHH) co-culture
Format: cell-based
Experimental: A system comprising HBV-infected primary human hepatocytes (PHHs) was established by persistent HBV infection for over 30 days in a self-assembling, primary hepatocyte co-culture system (FIG. 12A). To generate the co-cultures system, primary human hepatocytes (PHH) (BioIVT) were plated at 350 k cells per well in a Collagen-Type I coated 24-well plate (Corning, 354408), and incubated at 37° C., 5% C02 to generate an adherent cell monolayer. 4 hrs post plating, plated hepatocytes were washed with CP medium (BioIVT) to remove any unadhered cells. 3T3-J2 murine embryonic fibroblasts (Kerafast (distributed from Howard Green (Harvard), Boston) were seeded at a ratio of 95% hepatocyte:5% fibroblast per well and cultured at 37° C., 5% C02 for an additional 12 hours to form co-cultures. Culture medium was replaced every 2 days (500 μL per well) for continued maintenance. Shown in FIG. 12C are images of transduced primary hepatocytes from two human hepatocyte donors, isolated from two different human livers. They were isolated, cryopreserved, and distributed for sale for research purposes by BioIVT (Maryland, US).
On the second day, post hepatocyte co-culture formation, lentivirus was added at an MOI 500 dropwise into culture medium per well. Co-cultures were transduced for 16 hours, prior to changing media for fresh CP medium (BioIVT). Culture medium was replaced every 2 days (500 μL per well) for continued maintenance. Protein expression occurs over 7 days period in hepatic co-cultures. At day 7 post transduction, co-cultures were transfected using lipofection based reagents co-formulated with gRNA and base-editor mRNA. Cells were lysed and harvested for gDNA 48 hours post transfection. FIG. 12B provides a timeline of the in vitro transduction schedule in either hepatocyte monolayers or hepatocyte co-cultures showing representative time points. Importantly, PHH cultures not treated with polyethylene glycol (PEG) during infection tend to have very low percentages of HBV infected PHH cells.
The infected cells, as gauged by HBV markers, respond to treatment as expected. […] The amounts of extracellular HBV DNA detected in the treated PHH cultures were similar to the amount observed in negative control cell cultures.
The experiments employed the approach using the HBV-infected PHH culture system and transfection of the PHH with components (base editors) of the base editor system as depicted in FIG. 19. Primary hepatocytes (PHH) co-cultures were infected with HBV in order to test antiviral efficacy of the base editors. The base editing reagents or components (base editor mRNA and synthetic gRNA) were transfected via lipofection twice over the course of two weeks. The first transfection was performed 3 days after infection to allow for complete formation of viral covalently closed circular DNA (cccDNA) at the time of the transfection. Extracellular parameters (HBsAg, HBeAg, and HBV DNA) were monitored over the course of the experiment and intracellular parameters (HBV DNA, viral RNA, and editing) were monitored at the end of the experiment. Briefly, on Day 0, PHH were infected with HBV (MOI=500). On Day 3 after HBV infection, the cells were transfected with base editing components, e.g., a BE and gRNA, or control(s). On Day 10, PHHs were subjected to another round of transfection. At the termination of the experiment, e.g., Day 17 or longer, e.g., Day 25, the PHH were lysed and extracellular amounts of HBsAg, HBeAg and HBV DNA were assessed. Also assessed were intracellular amounts of HBV DNA, viral RNA and the efficacy of base editing by the components of the base editor system versus control(s). Transfection details: RNA format, 800 ng total RNA per well in a 24 well plate (600 ng base editor+200 ng gRNA) transfected via lipofection (lipofectamin messengerMax, Thermofisher Scientific) according to the vendor's protocol. […]

[1] = 14-day PHH co-culture experiment, FIG. 20

Row | Compound | HBV DNA [1] | HBsAg [1] | pgRNA [1] | extracellular HBV DNA (compared to untreated HBV infected control cells, by day 7 post infection, FIG. 13B) | HBV surface antigen (HBsAg) (relative to negative controls, FIG. 13C) | intracellular HBV DNA (relative to negative controls, FIG. 13D) | total HBV RNA (relative to negative controls, FIG. 13E) | pre-genomic RNA (pgRNA) (relative to negative controls, FIG. 13F)
1 | C=C1[C@H](CO)[C@@H](O)C[C@@H]1n1cnc2c(=O)[nH]c(N)nc21 [entecavir] | reduces | does not influence | does not influence |  |  |  |  | 
2 | C[C@H](Cn1cnc2c(N)ncnc21)OCP(=O)(O)O [tenofovir] |  |  |  | significantly reduced | lower levels | lower levels | lower levels | lower levels

From patent publication US20230070861A1, “COMPOSITIONS AND METHODS FOR TREATING HEPATITIS B” (priority 2019, published 2023)
